According to patent publication US8436035B2, “Organic compounds” (Novartis AG, priority 2006, dated 2013):

How the values were obtained:
CYP11B1 = molecular target: T1, CYP11B1 (Homo sapiens, UniProt P15538); assay: in vitro CYP11B1 inhibition, steroid release from NCI-H295R cells; assay type: cell-based; conditions: NCI-H295R; read-out: 11B1 % I @ 100 nM
T1 construct: Thus, the NCI-H295R cells have Cyp11 B1 (steroid 11 p-hydroxylase); host or cells: NCI-H295R
T1 sequence (P15538 25-503): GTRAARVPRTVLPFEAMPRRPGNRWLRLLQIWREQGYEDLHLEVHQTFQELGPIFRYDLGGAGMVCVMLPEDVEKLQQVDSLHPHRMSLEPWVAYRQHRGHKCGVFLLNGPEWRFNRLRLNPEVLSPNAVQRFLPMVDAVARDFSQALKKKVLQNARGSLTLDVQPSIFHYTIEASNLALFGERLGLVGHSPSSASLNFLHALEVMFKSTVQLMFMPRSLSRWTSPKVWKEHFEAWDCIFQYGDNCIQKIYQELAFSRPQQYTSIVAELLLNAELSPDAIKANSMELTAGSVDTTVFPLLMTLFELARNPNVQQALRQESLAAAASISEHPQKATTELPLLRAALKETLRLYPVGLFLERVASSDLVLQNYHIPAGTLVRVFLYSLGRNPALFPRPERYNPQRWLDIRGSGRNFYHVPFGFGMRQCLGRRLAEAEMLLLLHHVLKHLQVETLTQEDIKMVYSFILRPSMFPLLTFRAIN
Source text: The in vitro inhibitory activities for CYP11B1 can be determined by the following assay.
The cell line NCI-H295R was originally isolated from an adrenocortical carcinoma and has been characterized in the literature through the stimulable secretion of steroid hormones and the presence of the enzymes essential for steroidogenesis. Thus, the NCI-H295R cells have Cyp11 B1 (steroid 11 p-hydroxylase). The cells show the physiological property of zonally undifferentiated human foetal adrenocortical cells which, however, have the capacity to produce the steroid hormones which are formed in the three, phenotypically distinguishable zones in the adult adrenal cortex.
The NCI-H295R cells (American Type Culture Collection, ATCC, Rockville, Md., USA) are grown in Dulbeoco's Modified Eagle'Ham F-12 Medium (DME/F12), which has been I supplemented with Ulroser SF Serum (Soprachem, Cergy-Saint-Christophe, France), insulin, transferrin, selenite (I-T-S, Becton Dickinson Biosciences, Franklin lakes, NJ, USA) and antibiotics in 75 cm^2 cell culture vessels at 37° C. and in a 95% air-5% carbon dioxide atmosphere. The cells are subsequently transferred for colony formation into a 24-well incubation vessel. They are cultivated there in DME/F12 medium, which is now supplemented with 0.1% bovine serum instead of Ultroser SF for 24 hours. The experiment is initiated by cultivating the cells in DME/F12 medium which is supplemented with 0.1% bovine serum albumin and test compound, in the presence or absence of cell stimulants, for 72 hours. The test substance is added in a concentration range from 0.2 nanomolar to […]. Cell stimulants which can be used are angiotensin 11 ([…] or 100 nanomolar), potassium ions (16 millimolar), forskolin (10 micromolar) or a combination of two stimulants.
The excretion of aldosterone, cortisol, corticosterone and estradiol/estrone into the culture medium can be detected and quantified by commercially available, specific monoclonal antibodies in radioimmunoassays in accordance with the manufacturer's instructions.
Inhibition of the release of certain steroids can be used as a measure of the respective enzyme inhibition by the added test compounds. The dose-dependent inhibition of enzymic activity by a compound is calculated by means of an inhibition plot which is characterized by an IC50.
The IC50 values for active test compounds are ascertained by a […] in order to construct inhibition plots without data weighting. The inhibition plot is calculated by fting a 4-parameter logistic function to the raw data points using the least squares method. The equation of the 4-parameter logistic function is calculated as follows: Y=(d−a)/((1+(x/c)b))+a I where: a=minimum data level b=gradient I c=ICED, d=maximum data level x=inhibitor concentration.

[1] = molecular target: T2, aldosterone synthase (CYP11B2) (Homo sapiens, UniProt P19099); assay: in vitro aldosterone synthase inhibition, aldosterone production in Ang II-stimulated NCI-H295R cells; assay type: cell-based; conditions: read-out: AS IC50
T2 construct: host or cells: NCI-H295R
T2 sequence (P19099 25-503): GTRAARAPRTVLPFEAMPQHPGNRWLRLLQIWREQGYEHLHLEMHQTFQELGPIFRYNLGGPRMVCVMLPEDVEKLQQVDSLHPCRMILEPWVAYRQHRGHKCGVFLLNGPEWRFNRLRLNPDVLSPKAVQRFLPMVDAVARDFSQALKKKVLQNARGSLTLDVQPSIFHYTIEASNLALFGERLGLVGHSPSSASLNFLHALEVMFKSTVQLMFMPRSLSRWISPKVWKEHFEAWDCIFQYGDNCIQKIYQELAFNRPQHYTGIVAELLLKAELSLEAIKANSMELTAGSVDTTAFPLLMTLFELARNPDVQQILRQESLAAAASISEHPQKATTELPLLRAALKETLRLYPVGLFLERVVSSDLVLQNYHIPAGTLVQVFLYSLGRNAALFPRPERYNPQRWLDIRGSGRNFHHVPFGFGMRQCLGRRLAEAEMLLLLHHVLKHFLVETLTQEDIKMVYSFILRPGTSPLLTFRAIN
Source text: In particular, the aldosterone synthase inhibitory activities in vitro can be determined by the following assay.
Human adrenocortical carcinoma NCI-H295R cell line is obtained from American Type Culture Collection (Manassas, Va.). Insulin/transferrin/selenium (ITS)-A supplement (100×), DMEM/F-12, antibiotic/antimycotic (100×), and fetal calf serum (FCS) are purchased from Gibco (Grand Island, N.Y.). Anti-mouse PVT scintillation proximity assay (SPA) beads and NBS 96-well plates are obtained from Amersham (Piscataway, N.J.) and Corning (Acton, Mass.), respectively. Solid black 96-well flat bottom plates were purchased from Costar (Corning, N.Y.). Aldosterone and angiotensin (Ang II) are purchased from Sigma (St. Louis, Mo.). D-[1,2,6,7-^3H(N)]aldosterone was acquired from PerkinElmer (Boston, Mass.). Nu-serum was a product of BD Biosciences (Franklin Lakes, N.J.).
For in vitro measurement of aldosterone activity, human adrenocortical carcinoma NCI-H295R cells are seeded in NBS 96-well plates at a density of 25,000 cells/well in 100 μl of a growth medium containing DMEM/F12 supplemented with 10% FCS, 2.5% Nu-serum, 1 μg ITS/ml, and 1× antibiotic/antimycotic. The medium is changed after culturing for 3 days at 37° C. under an atmosphere of 5% CO2/95% air. On the following day, cells are rinsed with 100 μl of DMEM/F12 and incubated with 100 μl of treatment medium containing 1 μM Ang II and a compound at different concentrations in quadruplicate wells at 37° C. for 24 hr. At the end of incubation, 50 μl of medium is withdrawn from each well for measurement of aldosterone production by an RIA using mouse anti-aldosterone monoclonal antibodies.
Measurement of aldosterone activity can also be performed using a 96-well plate format. Each test sample is incubated with 0.02 μCi of D-[1,2,6,7-^3H(N)]aldosterone and 0.3 μg of anti-aldosterone antibody in phosphate-buffered saline (PBS) containing 0.1% Triton X-100, 0.1% bovine serum albumin, and 12% glycerol in a total volume of 200 μl at room temperature for 1 hr. Anti-mouse PVT SPA beads (50 μl) are then added to each well and incubated overnight at room temperature prior to counting in a Microbeta plate counter. The amount of aldosterone in each sample is calculated by comparing with a standard curve generated using known quantities of the hormone.

Structure (SMILES)	inhibition at 0.1 µM (CYP11B1) [%]	IC50 [1] [nM]
CC(C)OC(=O)c1cncn1C1CCCc2ccc(C(=O)N3CCCC3)cc21 (single isomer, unassigned) [Compound 3, 3-[7-(Pyrrolidine-1-carbonyl)-1,2,3,4-tetrahydro-naphthalen-1-yl]-3H-imidazole-4-carboxylic acid isopropyl ester]	87	215
Cc1noc(-c2cncn2C2c3ccccc3CC2(C)C)n1 (stereo not shown) [Compound 21, 5-[3-(2,2-Dimethyl-indan-1-yl)-3H-imidazol-4-yl]-3-methyl-[1,2,4]oxadiazole]	98	129
CC(C)OC(=O)c1cncn1C1CCOc2ccccc21 (single isomer, unassigned) [Compound 15, 3-Chroman-4-yl-3H-imidazole-4-carboxylic acid isopropyl ester]	65	103
CC1(C)C(n2cncc2CO)c2ccccc2S1(=O)=O (stereo not shown) [Compound 24, [3-(2,2-Dimethyl-1,1-dioxo-2,3-dihydro-1H-1lambda*6*-benzo[b]thiophen-3-yl)-3H-imidazol-4-yl]-methanol]	93	194
CC1(C)CSc2ccccc2C1n1ccnc1 (stereo not shown) [Compound 14, 1-(3,3-Dimethyl-thiochroman-4-yl)-1H-imidazole]	92	125
